Measurements from the NIST ThermoML archive (doi:10.1021/je034007i).

Experiments:
[1] = excess molar enthalpy (molar enthalpy of mixing); xn = mol fraction of the nth substance listed; details: 308.15 K, 101.3 kPa, Liquid
[2] = 308.15 K; 101.33 kPa; Liquid; vibrating tube

OCCO [1,2-ethanediol] + C[S+](C)[O-]
[1]
Details	excess molar enthalpy [kcal/mol]
x1 = 0.0506	-0.0466
x1 = 0.0963	-0.0878
x1 = 0.1378	-0.119
x1 = 0.1757	-0.147
x1 = 0.2423	-0.181
x1 = 0.2989	-0.203
x1 = 0.39	-0.219
x1 = 0.4601	-0.218
x1 = 0.5612	-0.198
x1 = 0.6574	-0.169
x1 = 0.7189	-0.147
x1 = 0.7933	-0.118
x1 = 0.8365	-0.0991
x1 = 0.8847	-0.0728
x1 = 0.911	-0.0595
x1 = 0.9388	-0.044
x1 = 0.9685	-0.0237

CC(O)CO (configuration not stated) [1,2-propanediol]
Details	mass density [kg/m3]
[2]	1026.15

CC(O)CO (configuration not stated) [1,2-propanediol] + C[S+](C)[O-]
[1]
Details	excess molar enthalpy [kcal/mol]
x2 = 0.0389	-0.0194
x2 = 0.0748	-0.039
x2 = 0.1082	-0.0531
x2 = 0.1392	-0.0645
x2 = 0.1921	-0.0847
x2 = 0.2444	-0.0962
x2 = 0.3267	-0.104
x2 = 0.3928	-0.101
x2 = 0.4925	-0.0926
x2 = 0.5929	-0.0788
x2 = 0.66	-0.0691
x2 = 0.7444	-0.0543
x2 = 0.7952	-0.0446
x2 = 0.8535	-0.0323
x2 = 0.8859	-0.0234
x2 = 0.9209	-0.0155
x2 = 0.9588	-0.00719

OCCOCCO [diethylene glycol]
Details	mass density [kg/m3]
[2]	1105.65

OCCOCCO [diethylene glycol] + C[S+](C)[O-]
[1]
Details	excess molar enthalpy [kcal/mol]
x1 = 0.0303	-0.0251
x1 = 0.0588	-0.0476
x1 = 0.0857	-0.0664
x1 = 0.1111	-0.0834
x1 = 0.1579	-0.109
x1 = 0.2	-0.128
x1 = 0.2727	-0.15
x1 = 0.3332	-0.159
x1 = 0.4285	-0.162
x1 = 0.5295	-0.154
x1 = 0.6	-0.145
x1 = 0.6923	-0.124
x1 = 0.75	-0.112
x1 = 0.8182	-0.0909
x1 = 0.8571	-0.0762
x1 = 0.9	-0.0599
x1 = 0.9474	-0.0347

C[S+](C)[O-] [dimethyl sulfoxide]
Details	mass density [kg/m3]
[2]	1085.5

OCCOCCOCCO [triethylene glycol]
Details	mass density [kg/m3]
[2]	1112.1

OCCOCCOCCO [triethylene glycol] + C[S+](C)[O-]
[1]
Details	excess molar enthalpy [kcal/mol]
x1 = 0.0217	-0.0287
x1 = 0.0425	-0.0537
x1 = 0.0625	-0.0751
x1 = 0.0816	-0.0944
x1 = 0.1176	-0.125
x1 = 0.1509	-0.15
x1 = 0.2104	-0.181
x1 = 0.2621	-0.198
x1 = 0.3477	-0.215
x1 = 0.4444	-0.214
x1 = 0.516	-0.207
x1 = 0.6153	-0.186
x1 = 0.6807	-0.168
x1 = 0.7618	-0.137
x1 = 0.81	-0.117
x1 = 0.8648	-0.0917
x1 = 0.9275	-0.0526
